Bases are written 5' to 3'; sugars and linkages follow in the same order, as letters with counts (s phosphorothioate, o phosphodiester; PS: all linkages phosphorothioate). C may stand for cytosine or 5-methylcytosine; the collection does not tell. l = locked nucleic acid (LNA); d = 2'-deoxy (DNA)

Consider 65 sequences from the OligoGym collection.

The target of this data set is HIF1A. As to the kind of experiment: HeLa, 100 nM transfected, 24 h, mean of 3. The following applies: ASO.
In the case of “TTACTGCCTTCTT (sugars l1 d2 l1 d8 l1, PS)”, the caspase activation (% of PBS control) was 105.
As for “TACTGCCTTCTTA (sugars l1 d1 l2 d6 l3, PS)”, the figure is 585; as for “GTTACTGCCTTCTTAC (sugars l5 d6 l2 d1 l2, PS)”, 488; as for GGCAAGCATCCTG (sugars l2 d8 l3, PS), 657.
“TGGCAAGCATCCTGTA (sugars l1 d1 l1 d9 l4, PS)” yielded a caspase activation (% of PBS control) of 379.
The same measure for “GTTACTGCCTTCTTAC (sugars ldddlddddddlldll, PS)”: 165; for “TGGCAAGCATCCTGTA (sugars l2 d1 l2 d9 l2, PS)”: 419; for TGGCAAGCATCCT (sugars l1 d9 l3, PS): 330.
As for “TGGCAAGCATCCTGTA (sugars l4 d7 l1 d1 l3, PS)”, the figure is 522; as for “GCAAGCATCCTGT (sugars l1 d2 l1 d6 l3, PS)”, 154.
As for “GTTACTGCCTTCTTAC (sugars l1 d2 l2 d9 l2, PS)”, the figure is 149.
Sequence “TTACTGCCTTCTT (sugars l2 d1 l1 d6 l3, PS)” registered a caspase activation (% of PBS control) of 325.
As for “GGCAAGCATCCTG (sugars l1 d1 l1 d7 l3, PS)”, the figure is 721.
The sequence “GTTACTGCCTTCTTAC (sugars lddddddddddldldl, PS)” gave a caspase activation (% of PBS control) of 115.
With “GCAAGCATCCTGT (sugars l1 d1 l2 d8 l1, PS)”, the caspase activation (% of PBS control) turned out to be 191.
As for “GTTACTGCCTTCTTAC (sugars l3 d1 l1 d9 l2, PS)”, the figure is 185; as for “TGGCAAGCATCCTGTA (sugars lddldddddddlddll, PS)”, 271.
The same measure for “TGGCAAGCATCCTGTA (sugars llddlddddddlldll, PS)”: 446; for CAAGCATCCTGTA (sugars l2 d9 l2, PS): 189; for “TGGCAAGCATCCTGTA (sugars ldddlddddddllddl, PS)”: 246.
The same measure for GTTACTGCCTTCT (sugars l4 d8 l1, PS): 142; for “TGGCAAGCATCCT (sugars l1 d1 l2 d6 l3, PS)”: 260; for TGGCAAGCATCCTGTA (sugars l4 d9 l3, PS): 412.
“TGGCAAGCATCCTGTA (sugars ldlddddddddllddl, PS)”: the caspase activation (% of PBS control) came to 197.
The same measure for TTACTGCCTTCTT (sugars l2 d9 l2, PS): 148; for “TGGCAAGCATCCTGTA (sugars l4 d7 l3 d1 l1, PS)”: 575.
The same measure for “ACTGCCTTCTTAC (sugars l2 d1 l1 d8 l1, PS)”: 177.
The same measure for “TGGCAAGCATCCTGTA (sugars ldldlddddddldlll, PS)”: 309; for “GTTACTGCCTTCT (sugars l1 d1 l1 d9 l1, PS)”: 117.
Sequence “TGGCAAGCATCCTGTA (sugars l4 d7 l1 d2 l2, PS)” had a caspase activation (% of PBS control) of 323.
The same measure for GGCAAGCATCCTG (sugars l3 d9 l1, PS): 496; for “ACTGCCTTCTTAC (sugars l1 d9 l1 d1 l1, PS)”: 140.
The same measure for “GGCAAGCATCCTG (sugars l1 d2 l1 d8 l1, PS)”: 205; for “TGGCAAGCATCCTGTA (sugars l2 d10 l1 d2 l1, PS)”: 377; for “TGGCAAGCATCCTGTA (sugars ldddldddddddlldl, PS)”: 167.
Sequence CAAGCATCCTGTA (sugars l2 d8 l3, PS) showed a caspase activation (% of PBS control) of 250.
In turn, “GTTACTGCCTTCTTAC (sugars l4 d9 l1 d1 l1, PS)” came in with a caspase activation (% of PBS control) of 191.
As for TGGCAAGCATCCTGTA (sugars l1 d14 l1, PS), the figure is 201.
As for GCAAGCATCCTGT (sugars l2 d9 l2, PS), the figure is 285; as for CAAGCATCCTGTA (sugars l1 d9 l3, PS), 135; as for “CAAGCATCCTGTA (sugars l2 d1 l1 d8 l1, PS)”, 123.
As for GTTACTGCCTTCT (sugars l1 d9 l3, PS), the figure is 171.
GTTACTGCCTTCTTAC (sugars l4 d11 l1, PS) registered a caspase activation (% of PBS control) of 159.
As for “CAAGCATCCTGTA (sugars ldllddddddldl, PS)”, the figure is 130; as for “TGGCAAGCATCCTGTA (sugars ldddlddddddlddll, PS)”, 221.
As for “ACTGCCTTCTTAC (sugars l1 d2 l1 d6 l3, PS)”, the figure is 126; as for “GTTACTGCCTTCTTAC (sugars l1 d2 l1 d11 l1, PS)”, 91.7; as for GCAAGCATCCTGT (sugars l1 d9 l3, PS), 147.
As for “TGGCAAGCATCCTGTA (sugars l2 d1 l2 d6 l5, PS)”, the figure is 477; as for “TGGCAAGCATCCTGTA (sugars l5 d6 l2 d1 l2, PS)”, 367.
Sequence CAAGCATCCTGTA (sugars l1 d10 l2, PS) returned a caspase activation (% of PBS control) of 111.
Consider “TGGCAAGCATCCTGTA (sugars lldlldddddddlddl, PS)”, for which the caspase activation (% of PBS control) worked out at 459.
As for “TGGCAAGCATCCTGTA (sugars ldldldddddddddll, PS)”, the figure is 210.
In turn, “TGGCAAGCATCCTGTA (sugars l1 d2 l2 d7 l4, PS)” displayed a caspase activation (% of PBS control) of 435.
The same measure for “TGGCAAGCATCCTGTA (sugars l2 d2 l1 d6 l5, PS)”: 432; for TGGCAAGCATCCTGTA (sugars l5 d10 l1, PS): 403.
As for “GCAAGCATCCTGT (sugars l1 d1 l1 d9 l1, PS)”, the figure is 165.
The same measure for “GTTACTGCCTTCTTAC (sugars l2 d9 l2 d2 l1, PS)”: 199.
The sequence “GTTACTGCCTTCTTAC (sugars l2 d2 l1 d8 l3, PS)” came in with a caspase activation (% of PBS control) of 237.
With “GTTACTGCCTTCTTAC (sugars lldlddddddddldll, PS)”, the caspase activation (% of PBS control) is 139.
As for “GCAAGCATCCTGT (sugars lldlddddddldl, PS)”, the figure is 209.
The same measure for “TGGCAAGCATCCTGTA (sugars ldldldddddddlddl, PS)”: 226; for “GTTACTGCCTTCTTAC (sugars l2 d1 l2 d9 l2, PS)”: 161.
In the case of “GTTACTGCCTTCTTAC (sugars l5 d6 l1 d3 l1, PS)”, the caspase activation (% of PBS control) came out at 454.
The same measure for “GTTACTGCCTTCTTAC (sugars l1 d1 l1 d11 l2, PS)”: 97.8.
